Measurements: patent US6770279B1, “TNFα antagonists and cyclosporin in therapy of rheumatoid arthritis” (The Kennedy Institute of Rheumatology, priority 1992, dated 2004)

Legend:
[1] = system: collagen type II induced arthritis in the DBA/1 mouse; assay: Collagen type II induced arthritis: limb involvement (number of arthritic limbs); assay type: in vivo; conditions: Example 2B; anti-TNF mAb 300 μg; methylprednisolone acetate 2 mg/kg
Method: Male DBA/1 mice were immunized intradermally at 8-12 weeks of age with 100 μg type II collagen emulsified in Freund's complete adjuvant (Difco Laboratories, East Molsey, UK). Day one of arthritis was considered to be the day that erythema and/or swelling was first observed in one or more limbs. Arthritis became clinically evident around 30 days after immunization with type II collagen. For each mouse, treatment was started on the first day that arthritis was observed and continued over a 10 day period, after which the mice were sacrificed and joints were processed for histology. Monoclonal antibody (mAb) treatment was administered on days 1, 4, and 7. For anti-TNF antibody, TN3-19.12, a neutralizing hamster IgG1 anti-TNFα/β monoclonal antibody (mAb), was used (Sheehan, K. C. et al., J. Immunology 142:3884-3893 (1989)). The isotype control was L2. The anti-TNF antibody and the isotype control were provided by R. Schreiber, Washington University Medical School (St. Louis, Mo., USA), in conjunction with Celltech (Slough, UK). The cell-depleting anti-CD4 monoclonal antibody (rat IgG2b) consisted of a 1:1 mixture of YTS 191.1.2 and YTA 3.1.2, provided by H. Waldmann (University of Cambridge, UK) (Galfre, G. et al., Nature 277: 131-133 (1979); Cobbold, S. P. et al., Nature 312: 548-551 (1984); Qin, S. et al., European J. Immunology 17:1159-1165 (1987)).
In collagen-induced arthritis, as in RA, it is usual for additional limbs to become involved after the initial appearance of clinical disease and new limb involvement is an important indicator of the progression of the disease. […]
Male DBA/1 mice were immunized intradermally with 100 μg of bovine type II collagen emulsified in complete Freund's adjuvant (Difco Laboratories, East Molsey, UK). […] Arthritis was monitored for clinical score and paw swelling (measured with calipers) for 10 days, after which the mice were sacrificed and joints were processed for histology. […]

[2] = system: collagen type II induced arthritis in the DBA/1 mouse; assay: Collagen type II induced arthritis: clinical score; assay type: in vivo; conditions: Example 7B
Method: Male DBA/1 mice were immunized intradermally with 100 μg of bovine type II collagen emulsified in complete Freund's adjuvant (Difco Laboratories, East Molsey, UK). The mean day of onset of arthritis was approximately one month after immunization. […] Arthritis was monitored for paw-swelling (measured with calipers) for 10 days, after which the mice were sacrificed and joints were processed for histology.
Clinical Score was assessed on the following scale: 0=normal; 1=slight swelling and/or erythema; 2=pronounced edematous swelling; and 3=joint rigidity. […]
(§1) Male DBA/1 mice were immunized intradermally with 100 μg of bovine type II collagen emulsified in complete Freund's adjuvant (Difco Laboratories, East Molsey, UK). […] Arthritis was monitored for paw swelling (measured with calipers) for 10 days, after which the mice were sacrificed and joints were processed for histology.
Clinical score was assessed on the following scale: 0=normal; 1=slight swelling and/or erythema; 2=pronounced edematous swelling, and 3=joint rigidity. […]
as §1, with “histology. […]” for “histology.”

[3] = system: TNF expression in the joints; assay: Immunohistochemical studies of TNF expression in joints; assay type: in vivo, mouse; conditions: preliminary immunohistochemical studies; mice with collagen-induced arthritis
Text: These findings indicate that rolipram is effective in established collagen-induced arthritis and may therefore be useful in the treatment of RA.

Row | SMILES | Increase (%) in limbs affected [1] | Limbs Affected (mean ± SEM) Day 1 [1] | Limbs Affected (mean ± SEM) Day 10 [1] | mean clinical score on day 10 (±SE) ([2]; rolipram 3 mg/kg twice daily, anti-TNF mAb 300 μg days 1, 4, 7, maximum score 12) | severity of arthritis (clinical score) ([2]; rolipram 3, 5 or 10 mg/kg i.p. twice daily, vs Cremophor EL) | TNF expression in the joints [3]
1 | CC(=O)OCC(=O)[C@@]1(O)CC[C@H]2[C@@H]3C[C@H](C)C4=CC(=O)C=C[C@]4(C)[C@H]3[C@@H](O)C[C@@]21C [Methylprednisolone acetate, methylprednisolone acetate] | 33% | 1.00 ± 0.00 | 1.50 ± 0.22 | – | – | –
2 | COc1ccc(C2CNC(=O)C2)cc1OC1CCCC1 (stereo not drawn) [rolipram] | – | – | – | 1.0±0.3 | significant reduction in the severity of arthritis | down-regulation of TNF expression in the joints
